In patent US20070243146A1, “Vitamin K1 as Energizer in Cosmetic Formulations” (priority 2004, published 2007):

What was measured:
[1] = tested on: eukaryotic cell lines; details: cited from earlier work
[2] = 45 mg/day, women with osteoporosis; cited from earlier work
[3] = tested on: human primary fibroblasts; assay: In vitro analysis of ATP levels in human epidermal fibroblasts (ViaLight Plus ATP assay); format: cell-based
Description: The biological endpoint in the example is the energy level of each individual cell. This is determined quantitatively by the level of adenosine triphosphate (ATP), which is the common energy storage molecule in human cells.
Primary epidermal fibroblast were isolated from human foreskin and cultured in DMEM with 10% fetal-bovine serum-(FBS), penicillin, and streptomycin. The cells were maintained in a growth chamber at 37° C. and 5% CO2 and used for these kinds of experiments between passage 8 and 12. Fibroblasts were transferred to 96 well plates and allowed to attach for 5 h in standard medium before a serum starvation with 1% FBS over 4 days was initiated.
Epidermal fibroblasts were treated between 4 h and 48 h with vitamin K1 at concentrations up to 44 μM in DMEM. After variing incubation time, the ATP-assay was performed with the High Sensitivy Cell Proliferation Assay (Via light Plus, Cambrex). The procedure was done according to the manufacturers recommendations. Briefly, the culture plate was removed from the incubator and was allowed to cool down to room temperature for at least 5 minutes, then 50 μl of Cell Lysis Reagent were added to each well and incubated 10 minutes, 100 μl of AMR PLUS were added to each well and incubated for 2 minutes at room temperature. The plate was analysed in a luminometer.

Molecule	stimulation of cell growth via transplasma membrane electron transport [1]	effect on loss of bone mineral density [2]	effect on risk of bone fractures [2]	incubation time at which maximum stimulation of ATP levels is reached ([3]; 2 μM vitamin K1, serum-starved fibroblasts, FIG. 1)	concentration with the most promising induction of ATP levels ([3]; dose-response at two time points, no correlation to the time point, FIG. 2)
COC1=C(OC)C(=O)C(C/C=C(\C)CC/C=C(\C)CC/C=C(\C)CC/C=C(\C)CC/C=C(\C)CC/C=C(\C)CC/C=C(\C)CC/C=C(\C)CC/C=C(\C)CCC=C(C)C)=C(C)C1=O [coenzyme Q10]	able to stimulate these cells				
menaquinone [vitamin K2]		slow down but not prevent a progressive loss of bone mineral density	reduce the risk of bone fractures		
CC1=C(C/C=C(\C)CCC[C@H](C)CCC[C@H](C)CCCC(C)C)C(=O)c2ccccc2C1=O [vitamin K1, phytomenadione]	no efficacy			about 16 h	2 µM
